PubChem BioAssay AID2060510 (Molecular Pharmacology Branch, DTP, NCI, 2025)
pIC50: −log10 of the molar value.

Tested on: 439559-082-T-J2-PDC spheroids viability
Assay: Anticancer human tumor 439559-082-T-J2-PDC patient-derived colon adenocarcinoma cell line growth inhibition [GQUAD]
Settings: for pIC50: curve of first compound; for viability, T/C: stronger effect = lower value
Summary of the method: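 Multi-cell-type spheroids of tumor cells with HUVEC and mesenchymal stem cells, treated with drug combinations. Concentrations descend in half-log steps from near clinical Cmax, or from 10 microM where Cmax is unknown; viability read-out.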

[1] = second compound 0.0316 µM, first compound 0.0316 µM
[2] = second compound 0.0316 µM, first compound 0.1 µM
[3] = second compound 0.0316 µM, first compound 0.316 µM
[4] = second compound 0.0316 µM, first compound 1 µM
[5] = second compound 0.0316 µM, first compound 3.16 µM
[6] = second compound 0.0316 µM, first compound 10 µM
[7] = second compound 0.1 µM, first compound 0.0316 µM
[8] = second compound 0.1 µM, first compound 0.1 µM
[9] = second compound 0.1 µM, first compound 0.316 µM
[10] = second compound 0.1 µM, first compound 1 µM
[11] = second compound 0.1 µM, first compound 3.16 µM
[12] = second compound 0.1 µM, first compound 10 µM
[13] = second compound 0.316 µM, first compound 0.0316 µM
[14] = second compound 0.316 µM, first compound 0.1 µM
[15] = second compound 0.316 µM, first compound 0.316 µM
[16] = second compound 0.316 µM, first compound 1 µM
[17] = second compound 0.316 µM, first compound 3.16 µM
[18] = second compound 0.316 µM, first compound 10 µM
[19] = second compound 1 µM, first compound 0.0316 µM
[20] = second compound 1 µM, first compound 0.1 µM
[21] = second compound 1 µM, first compound 0.316 µM
[22] = second compound 1 µM, first compound 1 µM
[23] = second compound 1 µM, first compound 3.16 µM
[24] = second compound 1 µM, first compound 10 µM
[25] = second compound 3.16 µM, first compound 0.0316 µM
[26] = second compound 3.16 µM, first compound 0.1 µM
[27] = second compound 3.16 µM, first compound 0.316 µM
[28] = second compound 3.16 µM, first compound 1 µM
[29] = second compound 3.16 µM, first compound 3.16 µM
[30] = second compound 3.16 µM, first compound 10 µM
[31] = second compound 10 µM, first compound 0.0316 µM
[32] = second compound 10 µM, first compound 0.1 µM
[33] = second compound 10 µM, first compound 0.316 µM
[34] = second compound 10 µM, first compound 1 µM
[35] = second compound 10 µM, first compound 3.16 µM
[36] = second compound 10 µM, first compound 10 µM
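Also: spheroids exposed to the agents for 7 days before readout.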
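For viability, T/C in this document: percent of luminescence signal in DMSO vehicle wells taken as 100% viability.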

With `CC(C)n1c(=O)n(C)c2cnc3cc(F)c(-c4ccc(OCCCN5CCCCC5)nc4)cc3c21` + Cc1cnc(CNC(=O)c2c(=O)c3ccc(N4CCCN(C)CC4)nc3n3c2sc2ccccc23)cn1 the pIC50 (second compound 0.0316 µM) was < 5.00, the pIC50 (second compound 0.1 µM) was < 5.00 and the pIC50 (second compound 0.316 µM) was < 5.00. For the same molecule, the pIC50 (second compound 1 µM) was < 5.00, the pIC50 (second compound 3.16 µM) was < 5.00 and the pIC50 (second compound 10 µM) was 5.22. It also gave a viability, T/C [1] of 91.2%, a viability, T/C [2] of 77.3% and a viability, T/C [3] of 88.8%. It also gave a viability, T/C [4] of 90.8%, a viability, T/C [5] of 94.2% and a viability, T/C [6] of 82.6%. The viability, T/C [7] was 77.9%, the viability, T/C [8] was 76.1% and the viability, T/C [9] was 60.8%. For the same molecule, the viability, T/C [10] was 68.2%, the viability, T/C [11] was 71% and the viability, T/C [12] was 62.9%. It also gave a viability, T/C [13] of 73.3%, a viability, T/C [14] of 67.6% and a viability, T/C [15] of 59.1%. The viability, T/C [16] was 66.3%, the viability, T/C [17] was 71.6% and the viability, T/C [18] was 53%. For the same molecule, the viability, T/C [19] was 71.8%, the viability, T/C [20] was 55.7% and the viability, T/C [21] was 66.7%. It also gave a viability, T/C [22] of 62.4%, a viability, T/C [23] of 62.9% and a viability, T/C [24] of 42.7%. It also gave a viability, T/C [25] of 56.9%, a viability, T/C [26] of 60.6% and a viability, T/C [27] of 67.6%. For the same molecule, the viability, T/C [28] was 60.8%, the viability, T/C [29] was 58.1% and the viability, T/C [30] was 46.1%. The viability, T/C [31] was 59.8%, the viability, T/C [32] was 57.2% and the viability, T/C [33] was 60.3%. For the same molecule, the viability, T/C [34] was 59.2%, the viability, T/C [35] was 58% and the viability, T/C [36] was 39.8%.

In the case of `CC1COCCN1c1cc(-c2ccnn2C)c2ccnc(-c3ccn[nH]3)c2n1` (stereo unspecified) + Cc1cnc(CNC(=O)c2c(=O)c3ccc(N4CCCN(C)CC4)nc3n3c2sc2ccccc23)cn1, the pIC50 (second compound 0.0316 µM) was 6.75, the pIC50 (second compound 0.1 µM) was 6.91 and the pIC50 (second compound 0.316 µM) was 7.09. It also gave a pIC50 (second compound 1 µM) of 7.15, a pIC50 (second compound 3.16 µM) of 7.33 and a pIC50 (second compound 10 µM) of 7.43. For the same molecule, the viability, T/C [1] was 85.7%, the viability, T/C [2] was 62.4% and the viability, T/C [3] was 37.3%. The viability, T/C [4] was 31.8%, the viability, T/C [5] was 33.6% and the viability, T/C [6] was 30%. The viability, T/C [7] was 91.6%, the viability, T/C [8] was 53% and the viability, T/C [9] was 36.4%. For the same molecule, the viability, T/C [10] was 27.6%, the viability, T/C [11] was 40% and the viability, T/C [12] was 28.1%. It also gave a viability, T/C [13] of 74.4%, a viability, T/C [14] of 43.8% and a viability, T/C [15] of 33.9%. It also gave a viability, T/C [16] of 34.1%, a viability, T/C [17] of 32.9% and a viability, T/C [18] of 24.4%. It also gave a viability, T/C [19] of 66.3%, a viability, T/C [20] of 43.4% and a viability, T/C [21] of 33.2%. The viability, T/C [22] was 30%, the viability, T/C [23] was 32% and the viability, T/C [24] was 26.1%. For the same molecule, the viability, T/C [25] was 57.6%, the viability, T/C [26] was 33.4% and the viability, T/C [27] was 31.4%. It also gave a viability, T/C [28] of 31.6%, a viability, T/C [29] of 27.4% and a viability, T/C [30] of 19.9%. For the same molecule, the viability, T/C [31] was 52.9%, the viability, T/C [32] was 35% and the viability, T/C [33] was 32.5%. For the same molecule, the viability, T/C [34] was 25.9%, the viability, T/C [35] was 27.3% and the viability, T/C [36] was 20.3%.

For `CC1COCCN1c1cc(C2(O)CC3CCC(C2)O3)c2cnn(-c3ccn[nH]3)c2n1` (stereo unspecified) + Cc1cnc(CNC(=O)c2c(=O)c3ccc(N4CCCN(C)CC4)nc3n3c2sc2ccccc23)cn1, the pIC50 (second compound 0.0316 µM) was 6.05, the pIC50 (second compound 0.1 µM) was 6.23 and the pIC50 (second compound 0.316 µM) was 6.44. The pIC50 (second compound 1 µM) was 6.47, the pIC50 (second compound 3.16 µM) was 6.56 and the pIC50 (second compound 10 µM) was 6.87. The viability, T/C [1] was 84.9%, the viability, T/C [2] was 85.1% and the viability, T/C [3] was 66.8%. For the same molecule, the viability, T/C [4] was 47.8%, the viability, T/C [5] was 38.4% and the viability, T/C [6] was 30.4%. It also gave a viability, T/C [7] of 84.4%, a viability, T/C [8] of 77.6% and a viability, T/C [9] of 57.6%. The viability, T/C [10] was 43.8%, the viability, T/C [11] was 34.6% and the viability, T/C [12] was 33.2%. It also gave a viability, T/C [13] of 82.5%, a viability, T/C [14] of 68.7% and a viability, T/C [15] of 54.3%. For the same molecule, the viability, T/C [16] was 34.3%, the viability, T/C [17] was 37.9% and the viability, T/C [18] was 31.3%. For the same molecule, the viability, T/C [19] was 71.4%, the viability, T/C [20] was 68.2% and the viability, T/C [21] was 49.6%. The viability, T/C [22] was 36.5%, the viability, T/C [23] was 28.8% and the viability, T/C [24] was 26.6%. For the same molecule, the viability, T/C [25] was 65.5%, the viability, T/C [26] was 57.8% and the viability, T/C [27] was 49.9%. The viability, T/C [28] was 34.6%, the viability, T/C [29] was 25.2% and the viability, T/C [30] was 27.3%. The viability, T/C [31] was 65.6%, the viability, T/C [32] was 50.5% and the viability, T/C [33] was 44.5%. It also gave a viability, T/C [34] of 32.8%, a viability, T/C [35] of 27.6% and a viability, T/C [36] of 21.2%.
